Entries after “also recorded” stand apart in the source; their conditions may differ. Where two headings read alike, the source gives them in different places.
What was measured:
CYP3A4 = CYP3A4 (Homo sapiens, UniProt P08684); test: CYP3A4 binding by Soret band spin shift analysis; details: FIG. 16, read-out: estimated Kd
Method: HCB induces a low-to-high spin transition in 3A4, meaning that it binds within the active site near the heme (FIG. 16).
A. HBB binds soluble CYP3A4 Δ3-22, dependent on the heme iron. The HBB binding spectrum is shown in red. Control spectra with dithionite reduction (blue) and CO adduct formation (green) are shown as well as untreated CYP3A4 Δ3-22 (black). B. HBB docked to truncated CYP3A4 Δ3-22 induces a low to high spin shift (left) with a Ks=74±7 μM (right). (FIG. 16)

ERα = test: Nuclear translocation of ERα in MCF-7 cells; type: cell-based, human; details: 10 μM, 2 hours, FIG. 6
Method: FIG. 6. […] A. representative images (Blue: nuclei; Red: ERα) from an experiment. B. Percentage change of nuclear ERα density normalized to nuclear DNA stained by Hoechst. MCF-7 cells (1.5×10^4 cells/well) were seeded on uSlide (8 wells, Ibidi, cat #80826) and cultured with complete culture medium (MEM medium with Earle's salts & L-glutamine) containing 10% FBS, 10 mM HEPES, 2 mM glutamine and 100 U penicillin and 100 U streptomycin for almost 70 hours. Then the cells were starved in serum, phenol red and antibiotics free MEM medium for almost 16 hours, followed with HCB (10 μM) or vehicle (0.01% DMSO) treatment for 2 hours in starvation medium. Then the cells were fixed, permeabilized and probed with monoclonal antibody against ERα (Abcam, Cat #16660, primary antibody) and Texas Red-conjugated goat anti rabbit IgG (Thermo Fisher Scientific, Cat #T-6391, secondary antibody). Nuclei were stained with Hoechst dye (Thermo Scientific, Cat #62249). The nuclear ERαas were analyzed with confocal microscopy. Four sites per well were selected randomly for collecting the image data. The density of fluorescence was measured by ImageJ. […] Intensities of lights in each ROI were measured in the blue channel (nuclei) and red (Texas red, estrogen receptor α) channel. […] Results normalized to control are expressed as means±S.D. (n=7). […]

mm006 = test: Oxygen consumption rate (OCR), mm006; type: cell-based, mouse (C57BL/6)
Method: Measurement of oxygen consumption rate (OCR). Cells were maintained in growth medium consisting of 10% FBS at 37° C. with 5% CO2 and seeded at 25,000 cells per well in a 96-well XF96 cell culture microplates (Agilent, Santa Clara, CA). An 96 well XF sensor cartridge was hydrated and equilibrated with 200 ul calibrant in each well at 37° C. without CO2 overnight. Growth media was replaced with 150 μL DMEM based assay media (a non-buffered medium including 2 mM L-glutamine but no sodium bicarbonate (buffering agent), glucose, or sodium pyruvate, Agilent, Santa Clara, CA) the next day and cells were incubated CO2 free for 1 hour before the measurement of OCR by a Seahorse XFe Extracellular Flux Analyzer (Agilent, Santa Clara, CA), which measures uptake and excretion of metabolic end products in real time. After baseline measurements, 20 μl assay medium containing control vehicle or drugs were injected into corresponding wells. OCRs were measured periodically and can be reported in pmoles/minute or normalized against baseline measurements before treatment.

CYP2C8 = target: T1, CYP2C8 (Homo sapiens, UniProt P10632); test: CYP2C8-mediated arachidonic acid epoxygenase EET biosynthesis; type: biochemical
T1 construct: purchased Corning; host or cells: insect cells (microsomes)
T1 sequence (P10632 1-490): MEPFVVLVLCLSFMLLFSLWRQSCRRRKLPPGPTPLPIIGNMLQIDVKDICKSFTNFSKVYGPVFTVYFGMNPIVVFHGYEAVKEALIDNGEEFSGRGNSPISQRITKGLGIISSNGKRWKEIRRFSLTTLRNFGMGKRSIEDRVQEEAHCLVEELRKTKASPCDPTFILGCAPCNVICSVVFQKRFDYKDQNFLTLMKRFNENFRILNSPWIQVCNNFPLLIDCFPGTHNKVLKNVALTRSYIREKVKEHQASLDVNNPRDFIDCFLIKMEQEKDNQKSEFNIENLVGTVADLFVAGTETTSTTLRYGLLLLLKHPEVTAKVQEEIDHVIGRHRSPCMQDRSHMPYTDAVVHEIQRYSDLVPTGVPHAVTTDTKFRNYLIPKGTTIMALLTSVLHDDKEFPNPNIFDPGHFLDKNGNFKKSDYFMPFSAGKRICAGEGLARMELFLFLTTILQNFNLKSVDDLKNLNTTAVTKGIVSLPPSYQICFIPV
Method: Recombinant Microsomal CYP-mediated EET Biosynthesis. CYP Supersomes™ (Corning, NY) (1 μM, final concentration) were incubated at 37° C. for 30 min in the presence of AA (120 μM) in 50 μl potassium phosphate buffer, (50 mM, pH 7.4), containing 1 mM EDTA and 1 mM NADPH. Reactions were terminated by addition of 50 μL of acetonitrile spiked with ^13C-EET internal standards followed by vigorous vortexing. After centrifugation at 16,000×rpm for 10 minutes to precipitate proteins and other insoluble debris and 80 μL supernatant was transferred into HPLC vials and analyzed by with an LC-ESI/MRM/MS method.
LC-ESI/MRM/MS Method for EET Measurement. EETs were measured by an LC-ESI/MRM/MS analytical method on a ThermoFisher Vantage triple quadrupole mass spectrometer (ThermoFisher, San Jose, CA) coupled with an UltiMate 3000 HPLC (ThermoFisher, San Jose, CA), using argon as the collision gas. Negative ion monitoring was performed at the following diagnostic product ions: 319 m/z→155 m/z for 8,9-EET; 319 m/z→179 m/z for 11,12-EET; 319 m/z→219 m/z for 14,15-EET; 339 m/z→163 m/z for 8,9-[^13C-20]EET; 339 m/z→233 m/z for 11,12-[^13C-20]EET; and 339 m/z→259 m/z for 14,15-[^13C-20]EET. Base-line resolution of EET regioisomers was achieved on a Phenomenex Luna C18 (2) reverse phase capillary column (250×0.5 mm, 5-μm particles) using the following mobile phase combinations: isocratic 5% B for 5 min, gradient 5-70% B for 5 min, hold at 70% for 30 min and then 95% for 10 min; A: 0.01% acetic acid in water, B: 0.01% acetic acid in acetonitrile; 10 μl/min flow rate. A standard curve was obtained by linear regression of the peak area ratio of authentic EET regioisomers against internal standards. The amount of EETs in samples was calculated according to the standard curve.

CYP3A4, sequence (P08684 with tags, fused parts or gaps): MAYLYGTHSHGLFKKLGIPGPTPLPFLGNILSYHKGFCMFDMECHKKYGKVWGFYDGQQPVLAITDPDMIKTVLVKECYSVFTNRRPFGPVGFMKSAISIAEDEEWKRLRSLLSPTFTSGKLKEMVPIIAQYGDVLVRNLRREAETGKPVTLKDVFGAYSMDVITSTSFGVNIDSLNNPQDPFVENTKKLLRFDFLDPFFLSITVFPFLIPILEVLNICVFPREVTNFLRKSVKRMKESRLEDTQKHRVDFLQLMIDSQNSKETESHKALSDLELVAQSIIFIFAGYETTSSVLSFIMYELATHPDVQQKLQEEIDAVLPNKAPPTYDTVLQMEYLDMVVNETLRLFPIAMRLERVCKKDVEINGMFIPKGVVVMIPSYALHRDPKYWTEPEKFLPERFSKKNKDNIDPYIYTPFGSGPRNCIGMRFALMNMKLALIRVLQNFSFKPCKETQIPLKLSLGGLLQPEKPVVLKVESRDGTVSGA

## CCCCCCNC(=N)NC(=N)NCC12C3C4C5C3C1C5C42 (stereo not shown) [HCB, Hexyl Cubanomethyl Biguanide]
CYP3A4
  Kd: 74 µM
ERα
  nuclear translocation of estrogen receptor (ER-α): significantly decrease; also recorded: decreases nuclear translocation of ERα
mm006
  OCR Inhibition [HCB] (uM) v vs. control (P < 0.05): 20 µM
CYP2C8; (±)8,9-EET, read-out: IC50, CYP2C8 biosynthesis of (±)8,9-EET
  IC50: 31 µM
CYP2C8; (±)11,12-EET, read-out: IC50, CYP2C8 biosynthesis of (±)11,12-EET
  IC50: 52 µM
CYP2C8; (±)14,15-EET biosynthesis
  fold lower inhibition of CYP2C8 (vs CYP3A4): 10 fold
CYP2C8; (±)14,15-EET, read-out: inhibition of CYP2C8-mediated biosynthesis of (±)14,15-EET
  IC50: 42 µM
